Several values for one entry are separate records, joined by “and”; a condition that tells them apart may be missing. Identical values can stand only once.
Molecular target: T1, human KMO (Homo sapiens, UniProt O15229)
T1 construct: Full length human KMO was amplified by PCR; made in house; host or cells: Spodoptera frugiperda (Sf9) cells, baculovirus; used as purified membranes
Assay: KMO MS Rapidfire functional assay (RapidFire high-throughput mass spectrometry, Method 1 or Method 2)
Format: biochemical
Conditions: in at least one of the MS Rapidfire assays (Method 1 or 2), isolated human KMO-membranes, 10 μM Kynurenine, 200 μM NADPH, values exemplary only; for IC50: read-out: median pIC50 (converted)
Text: KMO inhibition can be determined by MS Rapidfire assay performed on the human cloned enzyme as described herein.
L-Kynurenine (Kyn), 3-hydroxy-DL-kynurenine (3-HK), β-Nicotinamide adenine dinucleotide 2′-phosphate reduced tetrasodium salt hydrate (NADPH), 4-(2-hydroxyethyl)piperazine-1-ethanesulfonic acid (Hepes), DL-dithiothreitol (DTT), ethylenediaminetetraacetic acid (EDTA), CHAPS and trifluoroacetic acid (TFA) were purchased from Sigma-Aldrich Ltd. (Gillingham, Dorset, UK). HPLC-grade acetonitrile and formic acid were supplied by Fisher Scientific (Loughborough, UK).
Full length human KMO was amplified by PCR from pcDNA5/FRT/V5-His-TOPO/hKMO (vector supplied by the University of Edinburgh) and cloned into pGEX6P-1 (GE Healthcare) using BamH1 and Sal1 restriction sites. DNA encoding the N-terminal glutathione-S-transferase (GST) tag, followed by a Pre-Scission protease cleavage site, and the full length KMO was amplified by PCR from pGEX6P-1-KMO and cloned into pFastbac1 (Invitrogen) using Xbal and EcoR1 restriction sites.
pFastbac1 GST-KMO was transposed into the baculovirus genome using the BAC-to-BAC technology (Invitrogen) and bacmid DNA was prepared and transfected into Spodoptera frugiperda (Sf9) cells using Cellfectin II (Invitrogen).
A P1 virus stock was generated from a single clone and used to infect 3× 1.5 L cultures of Sf9 cells in 3 L Corning Fernbach flasks. […] Cells were harvested after 48 hours and disrupted by blending in 50 mM Hepes, pH 7.4, 1 mM EDTA buffer containing protease inhibitors. A low speed spin (400 g) was used to remove cell debris, followed by a high speed spin (75 000 g) to pellet the membranes. The membranes were purified in a discontinuous sucrose density gradient by re-suspending in 10% (w/v) sucrose and layering over 40% (w/v) sucrose, both in the above buffer. This was centrifuged at 150 000 g and the purified membranes were taken from the interface, collected by centrifugation at 100 000 g, resuspended in buffer and aliquoted for storage at −80° C.
11 point, 3-fold serial dilutions of test compounds were prepared in DMSO and 100 nL of these solutions were dispensed into 384-well V-base polypropylene plates (Greiner Bio-one, Stonehouse, UK) using an Echo 555 acoustic dispenser (Labcyte, Sunnyvale, Calif.). This gave a final assay concentration range between 100 μM and 1.7 nM in 10 μL final assay volume (see below). 100 nL DMSO was dispensed into columns 6 and 18 for high and low controls, respectively, with prior inactivation of the enzyme in column 18 by pre-dispense of 30 μL of 0.5% (v/v) TFA.
Conditions for the assay of human KMO using isolated KMO-membranes were 50 mM Hepes, pH 7.5, 2 mM DTT, 1 mM EDTA, 100 μM CHAPS, 200 μM NADPH, 10 μM Kynurenine and 8 μg/ml KMO-membranes in a total reaction volume of 10 μL.
Assays were performed by initially dispensing 5 μL of a 2× Enzyme solution (16 μg/ml KMO-membranes in 50 mM Hepes, pH 7.5, 2 mM DTT, 2 mM EDTA, 200 μM CHAPS) into plates containing 100 nL compounds and incubating for 10 min at ambient temperature. Reactions were initiated by addition of 5 μL of 2× Substrate solution (400 μM NADPH, 20 μM Kynurenine in 50 mM Hepes, pH 7.5, 2 mM DTT) and incubated for 2 h at room temperature before quenching the reaction with 30 μL of 0.5% (v/v) TFA. Plates were centrifuged at 2500 rpm for 10 min before analysis. All additions were made using a Multidrop Combi dispenser (Thermo Fisher Scientific).
Quenched assay plates were transferred to a high-throughput RapidFire200 integrated autosampler/solid-phase extraction (SPE) system (Agilent Technologies, Wakefield, Mass.).

T1 sequence (O15229 whole entry): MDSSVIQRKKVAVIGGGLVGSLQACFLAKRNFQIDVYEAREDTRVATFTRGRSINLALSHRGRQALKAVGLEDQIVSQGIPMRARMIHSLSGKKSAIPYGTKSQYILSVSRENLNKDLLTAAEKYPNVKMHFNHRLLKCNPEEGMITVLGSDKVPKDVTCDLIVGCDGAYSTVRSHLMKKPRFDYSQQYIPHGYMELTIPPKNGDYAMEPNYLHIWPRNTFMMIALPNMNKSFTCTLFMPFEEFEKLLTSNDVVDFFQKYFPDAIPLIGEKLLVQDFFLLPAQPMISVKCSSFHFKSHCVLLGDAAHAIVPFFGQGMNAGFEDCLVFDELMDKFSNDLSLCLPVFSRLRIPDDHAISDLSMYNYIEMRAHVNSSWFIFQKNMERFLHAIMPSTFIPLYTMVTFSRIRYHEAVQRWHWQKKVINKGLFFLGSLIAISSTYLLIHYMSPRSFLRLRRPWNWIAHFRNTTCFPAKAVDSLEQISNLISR

Compound | IC50 | median pIC50
CC(Oc1cc2onc(CCC(=O)O)c2cc1Cl)c1cccnn1 (single isomer, unassigned) [Example 22, 3-(5-chloro-6-(1-(pyridazin-3-yl)ethoxy)benzo[d]isoxazol-3-yl)propanoic acid] | ≤ 10 nM | –
CCC(Oc1cc2onc(CCC(=O)O)c2cc1Cl)c1ccc(C)cn1 (single isomer, unassigned) [Example 23, 3-(5-chloro-6-(1-(5-methylpyridin-2-yl)propoxy)benzo[d]isoxazol-3-yl)propanoic acid] | ≤ 10 nM | –
CCC(Oc1cc2onc(CCC(=O)O)c2cc1Cl)c1ccccn1 (single isomer, unassigned) [Example 25, 3-(5-chloro-6-(1-(pyridin-2-yl)propoxy)benzo[d]isoxazol-3-yl)propanoic acid] | ≤ 10 nM and 3.98 nM | –
CCC(Oc1cc2onc(CCC(=O)O)c2cc1Cl)c1ccc(Cl)cn1 (single isomer, unassigned) [Example 27, 3-(5-chloro-6-(1-(5-chloropyridin-2-yl)propoxy)benzo[d]isoxazol-3-yl)propanoic acid] | ≤ 10 nM | –
CCc1ccc(C(C)Oc2cc3onc(CCC(=O)O)c3cc2Cl)nc1 (single isomer, unassigned) [Example 29, 3-{5-Chloro-6-[1-(5-ethylpyridin-2-yl)ethoxy]-1,2-benzoxazol-3-yl}propanoic acid] | 10 nM | –
CCc1cccc(C(C)Oc2cc3onc(CCC(=O)O)c3cc2Cl)n1 (single isomer, unassigned) [Example 31, 3-{5-Chloro-6-[1-(6-ethylpyridin-2-yl)ethoxy]-1,2-benzoxazol-3-yl}propanoic acid] | 10 nM | –
Cc1ncc(C(C)Oc2cc3onc(CCC(=O)O)c3cc2Cl)o1 (single isomer, unassigned) [Example 35, 3-{5-Chloro-6-[1-(2-methyl-1,3-oxazol-5-yl)ethoxy]-1,2-benzoxazol-3-yl}propanoic acid] | 10 nM | –
CC(Oc1cc2onc(CCC(=O)O)c2cc1Cl)c1ncc(Cl)cn1 (single isomer, unassigned) [Example 37, 3-{5-Chloro-6-[1-(5-chloropyrimidin-2-yl)ethoxy]-1,2-benzoxazol-3-yl}propanoic acid] | 10 nM | –
Cc1cnc(C(C)Oc2cc3onc(CCC(=O)O)c3cc2Cl)nc1 (single isomer, unassigned) [Example 39, 3-{5-Chloro-6-[1-(5-methylpyrimidin-2-yl)ethoxy]-1,2-benzoxazol-3-yl}propanoic acid] | 10 nM | –
CCc1coc(C(C)Oc2cc3onc(CCC(=O)O)c3cc2Cl)n1 (single isomer, unassigned) [Example 41, 3-{5-Chloro-6-[1-(4-ethyl-1,3-oxazol-2-yl)ethoxy]-1,2-benzoxazol-3-yl}propanoic acid] | 10 nM | –
CC[C@H](Oc1cc2onc(CCC(=O)O)c2cc1Cl)c1ncccn1 (single isomer, unassigned) [Example 43] | 10 nM | –
CCC(Oc1cc2onc(CCC(=O)O)c2cc1Cl)c1cccnn1 (single isomer, unassigned) [Example 46, 3-{5-Chloro-6-[1-(pyridazin-3-yl)propoxy]-1,2-benzoxazol-3-yl}propanoic acid] | 10 nM | –
CCC(Oc1cc2onc(CCC(=O)O)c2cc1Cl)c1ccc(C)nn1 (single isomer, unassigned) [Example 47, 3-{5-Chloro-6-[1-(6-methylpyridazin-3-yl)propoxy]-1,2-benzoxazol-3-yl}propanoic acid] | 10 nM | –
CCC(Oc1cc2onc(CCC(=O)O)c2cc1Cl)c1ncc(C)cn1 (single isomer, unassigned) [Example 49, 3-{5-Chloro-6-[1-(5-methylpyrimidin-2-yl)propoxy]-1,2-benzoxazol-3-yl}propanoic acid] | 10 nM | –
CCC(Oc1cc2onc(CCC(=O)O)c2cc1Cl)c1ncc(Cl)cn1 (single isomer, unassigned) [Example 51, 3-{5-Chloro-6-[1-(5-chloropyrimidin-2-yl)propoxy]-1,2-benzoxazol-3-yl}propanoic acid] | 10 nM | –
O=C(O)CCc1noc2cc(OCc3ccccn3)c(Cl)cc12 [Example 2, 2-amino-2-(hydroxymethyl)propane-1,3-diol 3-(5-chloro-6-(pyridin-2-ylmethoxy)benzo[d]isoxazol-3-yl)propanoate] | ≤ 10 nM | –
O=C(O)CCc1noc2cc(OCc3ccc(Cl)cn3)c(Cl)cc12 [Example 7, 2-amino-2-(hydroxymethyl)propane-1,3-diol 3-(5-chloro-6-((5-chloropyridin-2-yl)methoxy)benzo[d]isoxazol-3-yl)propanoate] | 2.51 nM | –
O=C(O)CCc1noc2cc(OCc3cccnn3)c(Cl)cc12 [Example 13, 3-(5-chloro-6-(pyridazin-3-ylmethoxy)benzo[d]isoxazol-3-yl)propanoic acid] | ≤ 10 nM | –
Cc1ccc([C@@H](C)Oc2cc3onc(CCC(=O)O)c3cc2Cl)nn1 [Example 20, (R)-3-(5-chloro-6-(1-(6-methylpyridazin-3-yl)ethoxy)benzo[d]isoxazol-3-yl)propanoic acid] | ≤ 10 nM | 8.7
